Test system: Phytopathogenic nematodes (Helicotylenchus and Hemicycliophora)
Test: NEPOT test in soil pots: full formulation, co-formulants, lutein alone (Example 14)
Format: in vivo
Details: 20 mL/pot, 7 DAA; for number of nematodes in soil (living individuals, Baermann): 320 individuals per pot
Description: The purpose of this test was to evaluate the efficacy of the products coded as P1, P2 and P3 of the company IDAI NATURE against a mixture of phytopathogenic nematodes by the company NEVAL.
This study evaluates the behaviour under controlled conditions, in soil (NEPOT test)* of a battery of products against a mixture of phytopathogenic nematodes.
This study consists of 3 compositions, each of them at 2 doses and a control without treatment.
The juveniles were obtained from a freshly extracted sample of roots of sports lawns.
It is based on pots or glasses with the right amount of 100 mL for a quantification per sample.
• Product 1: N-09-04—Full formulation • Product 2: Co-formulant package (without A.I.)—(sunflower oil+tensioactives polysorbates 20, 80 and 85+butyl glycol+TBHQ+water) • Product 3: The Active ingredient alone—Lutein
The trial was carried out laboratory in Xilxes—Castelon—Spain—under controlled conditions and plant pathogenic nematodes in soil in a volume of 100 mL per pot. The three replicates per treatment were worked in 100 mL pots of soil with 320 plant pathogenic nematodes in each pot. • Pest: Phytopathogenic nematodes (Helicotylenchus and Hemicycliophora) • Innoculum quantity: 320 individuals per experimental unit • Substract: Sandy soil • Application: Manual—20 mL/pot • Design: Randomized Complete Block (RCB)—3 replicates per treatment • Equipment: Manual application: with micropipette and MAT 09.1 balance • Application code: A=28/06/2021—preparation+application A • Extraction=05/07/2021 (7 DAA according Baermann) • Quantification=06/07/2021
Products 1 (N-09-04 full formulation) and product 2 (the full formulation without the Lutein) were mixed with water, while product 3 (Lutein alone—active ingredient), difficult miscibility was deposited on the ground, adding the water later and mixing everything in the soil with a teaspoon shaking for 30 seconds each replica.
After the study carried out under laboratory conditions, each of the soil samples was extracted using the Baermann funnel procedure for 24 hours and then quantified under a biological microscope.
The Baermann procedure has the particular option of extracting only those individuals that have mobility, that is, that are alive, so the result is extrapolated to living individuals.

CC1=C[C@H](O)CC(C)(C)[C@H]1/C=C/C(C)=C/C=C/C(C)=C/C=C/C=C(C)/C=C/C=C(C)/C=C/C1=C(C)C[C@@H](O)CC1(C)C [Product 3, Lutein]
efficacy / control (in brackets) (0.375 mL/L): 78.4%
number of nematodes in soil (living individuals, Baermann) (0.375 mL/L): 68.0
efficacy / control (in brackets) (0.563 ml/L): 77.5%
number of nematodes in soil (living individuals, Baermann) (0.563 ml/L): 71.0
efficacy / control (in brackets) (5 ml/L): 4.2%
efficacy / control (in brackets) (7.5 ml/L): 40.8%

From patent publication US20250204530A1, “USE OF CAROTENIOD COMPOSITION FOR NEMATODE CONTROL” (IDAI NATURE, S.L., priority 2022, published 2025)
